The values that follow come from patent US20200325543A1, “DIAGNOSTIC METHOD” (TOLREMO THERAPEUTICS AG, priority 2017, published 2020).

Molecules are shown by their SMILES. Counter-ions that a name gives are not always drawn.

Assay [1] concerns SOX2. The assay is described as follows: SOX2 levels by Western blot in A375-P cells. Type of assay: cell-based. The conditions noted are these: 1 μM PLX4720, 0.5 μM AZD6244 or both, indicated times, versus 0.01% DMSO. How it is done:
(A) A375-P cells were treated with PLX4720 (BRAFi) or DMSO for 6 h, RNA was isolated and RNA-Seq was performed. […] Differentially expressed genes (DEGs) selected for pathway analysis are represented by red and blue dots depending on the direction of the transcriptional change (red genes are induced upon PLX4720, blue genes are repressed upon PLX4720). (B) Bar graphs showing the five top pathways with significant enrichment of the analyzed DEGs. Longer bars indicate stronger significance. (C) Top deregulated genes upon treatment with PLX4720 (left column). Top genes induced and repressed by PLX4720 are shown in separate lists. (D) Indicated cell lines were treated with 1 μM PLX4720 or 0.01% DMSO (0 h) for the indicated times and the expressional changes of selected genes associated with stemness/EMT were confirmed by qPCR. […] As key player in the sternness signature, SOX2 levels were assessed. […] (F) A375-P cells were treated with 1 μM PLX4720, 0.5 μM AZD6244 (MEK1/2 inhibitor) or 0.01% DMSO for the indicated times and SOX2 levels were assessed by Western blot analysis. […] (G) A375-P cells were treated with 1 μM PLX4720 (BRAFi), 0.5 μM AZD6244 (MEKi), a combination of both drugs or 0.01% DMSO for the indicated times and SOX2 levels were assessed by Western blot analysis. […] For all Western blots, individual time points were assessed in at least two independent experiments. […]

Another assay has as its system S6K and BAD. In words: Survival signaling by Western blot in A375-P/pTRIPZ cells. It counts as cell-based. The conditions noted are these: A375-P/pTRIPZ-control or -SOX2 cells, PLX4720 48 h. How it is done:
(A) A375-P cells were transfected with 100 nM siRNA targeting SOX2 or a negative control siRNA. Cells were then treated with PLX4720 (BRAFi) or DMSO for 48 h. 2 h before harvesting, cells were pulsed with 3 uM EdU to label cycling cells. EdU-positive cells were detected using flow cytometry. Note that SOX2 knockdown has no effect on cell proliferation when BRAF is active (DMSO) but reduces the pool of drug-tolerant, cycling cells in the BRAFi condition. Representative data is shown. (B) Quantification of experiment (A). For each condition, percentage of cycling cells upon siRNA knockdown of SOX2 was normalized to the negative control siRNA. Data shown represent mean of independent biological triplicates ±SEM. (C) A375-P cells stably transduced with pTRIPZ-SOX2 vector were treated with the indicated concentrations of doxycycline for three days or with 1 μM PLX4720 (PLX) for 24 h. SOX2 overexpression was confirmed by Western blot analysis. Lamin A served as loading control. Individual concentrations were assessed in at least two independent experiments. Representative results are shown. […] EdU-positive cells were detected using flow cytometry. […] Cell viability was assessed by PrestoBlue assay and IC50 values were calculated. […] Survival signaling was assessed by Western blot. […]

The subject of assay [2] is genes associated with stemness/EMT. The assay is described as follows: RNA-Seq / qPCR of genes associated with stemness/EMT in melanoma cells. Type of assay: cell-based. To be noted: A375-P cells, 1 μM PLX4720, 0.5 μM AZD6244 or both, 24 h, versus 0.01% DMSO. Background: Quantitative PCR measures a nucleic acid by following its amplification.
Assay [3] deals with SOX2. In words: Screen of a library of FDA-approved drugs for SOX2 antibody staining in A375 cells treated with PLX4720 and AZD6244. To be noted: for cor. loess / raw / norm: A375 cells, 5 uM test drug with 1 uM PLX4720 and 0.5 uM AZD6244, 24 h; for cor. loess: normalized and geometry-corrected (loess) signal; for raw: raw signal (ratio of FL2 SOX2 antibody and FL3 nuclear staining), screen run in duplicate; for norm: signal after plate normalization; for z: Z-test against negative controls (DMSO), single dose 5 uM.

For the compound `CCCS(=O)(=O)Nc1ccc(F)c(C(=O)c2c[nH]c3ncc(Cl)cc23)c1F` [PLX4720], the “SOX2 levels (Western blot)” value in the assay with SOX2 [1] is “induce similar SOX2 levels”. Besides, the “Survival signaling via S6K and BAD (Western blot)” value with S6K and BAD is reported as “repressed”. For the same compound, the “expressional changes of selected genes associated with stemness/EMT (qPCR)” value in assay [2] is recorded as “comparable effects on transcript levels”.
Turning to `Cn1cnc2c(F)c(Nc3ccc(Br)cc3Cl)c(C(=O)NOCCO)cc21` [AZD6244], in the assay on SOX2 [1], the “SOX2 levels (Western blot)” value is reported as “induce similar SOX2 levels”. Besides, the “expressional changes of selected genes associated with stemness/EMT (qPCR)” value in assay [2] is listed as “comparable effects on transcript levels”.
As for `CC1(C)O[C@@H]2C[C@H]3[C@@H]4CCC5=CC(=O)CC[C@]5(C)[C@@]4(F)[C@@H](O)C[C@]3(C)[C@]2(C(=O)CCl)O1` [HALCINONIDE], in the assay on SOX2 [3], the cor. loess stood at 0.2632, the raw is recorded as 0.9853, the norm was found to be 0.2586 and the z is listed as 3.581.
The matching figures for `COC(=O)[C@]12CCC(C)(C)C[C@H]1[C@H]1C(=O)C=C3[C@@]4(C)C=C(C#N)C(=O)C(C)(C)[C@@H]4CC[C@@]3(C)[C@]1(C)CC2` [Bardoxolone Methyl]: 1.25, 0.9513, 1.346 and 9.753.
For `CCCCc1oc2ccc(NS(C)(=O)=O)cc2c1C(=O)c1ccc(OCCCN(CCCC)CCCC)cc1` [DRONEDARONE HYDROCHLORIDE], in the assay on SOX2 [3], the cor. loess is 3.823, the raw stood at 0.8721, the norm was 4.004 and the z was 52.01.
`CC(C)(C)CC(C)(C)c1ccc(OCCOCC[N+](C)(C)Cc2ccccc2)cc1` [BENZETHONIUM CHLORIDE]: in the assay with SOX2 [3], the cor. loess stood at 0.9288, the raw is reported as 0.9635, the norm is 0.9712 and the z turned out to be 7.654.
The like results for `O=C(CCCCCCC(=O)Nc1ccccc1)NO` [VORINOSTAT] were, in that order, 0.9868, 0.9634, 0.984 and 13.43.
Turning to `CCN(CC)CCNC(=O)c1c(C)[nH]c(/C=C2\C(=O)Nc3ccc(F)cc32)c1C` [Sunitinib], in the assay on SOX2 [3], the cor. loess turned out to be 0.5385, the raw was 0.9775, the norm is 0.514 and the z is 5.758.
In the case of `CCN(CC)Cc1cc(Nc2ccnc3cc(Cl)ccc23)ccc1O` [AMODIAQUINE DIHYDROCHLORIDE], in the assay with SOX2 [3], the cor. loess is 0.9308, the raw amounted to 0.9611, the norm came out at 1.053 and the z is recorded as 7.671.
The matching figures for `Nc1ccccc1NC(=O)c1ccc(CNC(=O)OCc2cccnc2)cc1` [Entinostat (MS-275), Entinostat]: 0.6933, 0.9672, 0.8427 and 5.41.
As to `O=C(Oc1cccc2cccnc12)c1ccccc1` [BENZOXIQUINE], in the assay on SOX2 [3], the cor. loess was determined as 0.5846, the raw turned out to be 0.9731, the norm was determined as 0.6197 and the z is 3.458.
